Test results as given in patent publication US12391721B2, “Crystal forms of beta-nicotinamide mononucleotide” (Metro International Biotech, LLC, priority 2015, dated 2025).

Tests used:
Type in all cases: physicochemical
[1] = Three month stability and forced degradation study: HPLC purity of stored solids; conditions: for Known Impurity* (%) (nicotinamide, RRT = 1.73 min) / Purity (%): HPLC
Protocol: Purity analysis was performed on an Agilent HP1100 series system equipped with a diode array detector and using ChemStation software vB.04.03 using the method detailed below in Table 1.
(§1) […] The samples were prepared in duplicate with an offset of 2 weeks. Each replicate was stored in a different container.
(§2) Replicate 1 was charged in an open HPLC vial that was placed in a sealed scintillation vial containing a saturated solution of the relevant inorganic salt (Table 2). These samples were analysed by HPLC, 1H NMR, XRPD and Polarized Light Microscopy (PLM) at 4, 8, and 12 week time points.
(§3) Replicate 2 was stored in sealed box with a recipient containing a saturated solution of the relevant inorganic salt (Table 2). These samples were analysed by HPLC at 2, 6, 10 and 12 week time points. Samples at 25° C./0% RH were stored in a sealed box containing a desiccant agent (P2O5).

[2] = Three month stability and forced degradation study: visual observations of stored solids
Protocol: as §1, §2, §3

[3] = Three month stability and forced degradation study: particle morphology by polarised light microscopy (PLM); conditions: Replicate 1
Protocol: Samples were studied on a Leica LM/DM polarised light microscope with a digital video camera for image capture. A small amount of each sample was placed on a glass slide, 15 mounted in immersion oil and covered with a glass slip, the individual particles being separated as well as possible. The sample was viewed with appropriate magnification and partially polarised light, coupled to a λ false-color filter.
as §1, §2

[4] = Three month stability and forced degradation study: solid form by XRPD after storage; conditions: for XRPD: Replicate 1
Protocol: X-Ray Powder Diffraction patterns were collected on a Bruker D8 diffractometer using Cu Kα radiation (40 kV, 40 mA), θ-2θ goniometer, and divergence of V4 and receiving slits, a Ge monochromator and a Lynxeye detector. The instrument is performance checked using a certified Corundum standard (NIST 1976). The software used for data collection was Diffrac Plus XRD Commander v2.6.1 and the data were analysed and presented using Diffrac Plus EVA v15.0.0.0.
Samples were run under ambient conditions as flat plate specimens using powder as received. The sample was gently packed into a cavity cut into polished, zero-background (510) silicon wafer. The sample was rotated in its own plane during analysis. The details of the data collection are: • Angular range: 2 to 42° 2θ • Step size: 0.05° 2θ • Collection time: 0.5 s/step HPLC
as §1, §2

[5] = solid stored 25° C., 0% RH, 4 weeks, Replicate 1
[6] = solid stored 25° C., 0% RH, 8 weeks, Replicate 1
[7] = solid stored 25° C., 0% RH, 12 weeks, Replicate 1
[8] = solid stored 25° C., 0% RH, 12 weeks, Replicate 1, listed as Crystalline Form 1
[9] = solid stored 25° C., 60% RH, 2 weeks, Replicate 2
[10] = solid stored 25° C., 60% RH, 4 weeks, Replicate 1
[11] = solid stored 25° C., 60% RH, 6 weeks, Replicate 2
[12] = solid stored 25° C., 60% RH, 8 weeks, Replicate 1
[13] = solid stored 25° C., 60% RH, 10 weeks, Replicate 2
[14] = solid stored 25° C., 60% RH, 12 weeks, Replicate 1
[15] = solid stored 25° C., 60% RH, 12 weeks, Replicate 2
[16] = solid stored 25° C., 97% RH, 2 weeks, Replicate 2
[17] = solid stored 25° C., 97% RH, 4 weeks, Replicate 1
[18] = solid stored 25° C., 97% RH, 6 weeks, Replicate 2
[19] = solid stored 25° C., 97% RH, 8 weeks, Replicate 1
[20] = solid stored 25° C., 97% RH, 10 weeks, Replicate 2
[21] = solid stored 25° C., 97% RH, 12 weeks, Replicate 1
[22] = solid stored 25° C., 97% RH, 12 weeks, Replicate 2
[23] = solid stored 40° C., 75% RH, 2 weeks, Replicate 2
[24] = solid stored 40° C., 75% RH, 4 weeks, Replicate 1
[25] = solid stored 40° C., 75% RH, 6 weeks, Replicate 2
[26] = solid stored 40° C., 75% RH, 8 weeks, Replicate 1
[27] = solid stored 40° C., 75% RH, 10 weeks, Replicate 2
[28] = solid stored 40° C., 75% RH, 12 weeks, Replicate 1
[29] = solid stored 40° C., 75% RH, 12 weeks, Replicate 2
[30] = t = 0, baseline of the stability study, listed as RME-1304-063-01
[31] = solid stored 25° C., 0% RH, 4 weeks
[32] = solid stored 25° C., 0% RH, 8 weeks
[33] = solid stored 25° C., 0% RH, 12 weeks
[34] = solid stored 25° C., 60% RH, 4 weeks
[35] = solid stored 25° C., 60% RH, 8 weeks
[36] = solid stored 25° C., 60% RH, 12 weeks
[37] = solid stored 25° C., 97% RH, 4 weeks
[38] = solid stored 25° C., 97% RH, 8 weeks
[39] = solid stored 25° C., 97% RH, 12 weeks
[40] = solid stored 40° C., 75% RH, 4 weeks
[41] = solid stored 40° C., 75% RH, 8 weeks
[42] = solid stored 40° C., 75% RH, 12 weeks

chemical purity after storage ([1]; 4 weeks of storage at all the tested conditions): ~99.3%
Known Impurity* (%) (nicotinamide, RRT = 1.73 min) [1, 5]: 0.25%
Purity (%) [1, 5]: 99.4%
Known Impurity* (%) (nicotinamide, RRT = 1.73 min) [1, 6]: 0.33%
Purity (%) [1, 6]: 99.2%
Known Impurity* (%) (nicotinamide, RRT = 1.73 min) [1, 7]: 0.38%
Purity (%) [1, 7]: 98.9%
Known Impurity* (%) (nicotinamide, RRT = 1.73 min) [1, 8]: 0.38%
Purity (%) [1, 8]: 98.9%
Known Impurity* (%) (nicotinamide, RRT = 1.73 min) [1, 9]: 0.19%
Purity (%) [1, 9]: 99.6%
Known Impurity* (%) (nicotinamide, RRT = 1.73 min) [1, 10]: 0.34%
Purity (%) [1, 10]: 99.3%
Known Impurity* (%) (nicotinamide, RRT = 1.73 min) [1, 11]: 0.21%
Purity (%) [1, 11]: 99.5%
Known Impurity* (%) (nicotinamide, RRT = 1.73 min) [1, 12]: 0.63%
Purity (%) [1, 12]: 98.9%
Known Impurity* (%) (nicotinamide, RRT = 1.73 min) [1, 13]: 0.35%
Purity (%) [1, 13]: 99.1%
Known Impurity* (%) (nicotinamide, RRT = 1.73 min) [1, 14]: 0.98%
Purity (%) [1, 14]: 98.2%
Known Impurity* (%) (nicotinamide, RRT = 1.73 min) [1, 15]: 0.23%
Purity (%) [1, 15]: 98.8%
Known Impurity* (%) (nicotinamide, RRT = 1.73 min) [1, 16]: 0.22%
Purity (%) [1, 16]: 99.5%
Known Impurity* (%) (nicotinamide, RRT = 1.73 min) [1, 17]: 0.49%
Purity (%) [1, 17]: 99.3%
Known Impurity* (%) (nicotinamide, RRT = 1.73 min) [1, 18]: 0.38%
Purity (%) [1, 18]: 99.4%
Known Impurity* (%) (nicotinamide, RRT = 1.73 min) [1, 19]: 1.38%
Purity (%) [1, 19]: 98.3%
Known Impurity* (%) (nicotinamide, RRT = 1.73 min) [1, 20]: 0.77%
Purity (%) [1, 20]: 98.6%
Known Impurity* (%) (nicotinamide, RRT = 1.73 min) [1, 21]: 3.46%
Purity (%) [1, 21]: ~95.8^$ %
Purity (%) ([1]; solid stored 25° C., 97% RH, 12 weeks, Replicate 1, listed as Crystalline Form 1): 95.8%
Known Impurity* (%) (nicotinamide, RRT = 1.73 min) [1, 22]: 0.55%
Purity (%) [1, 22]: 98.4%
Known Impurity* (%) (nicotinamide, RRT = 1.73 min) [1, 23]: 0.22%
Purity (%) [1, 23]: 99.5%
Known Impurity* (%) (nicotinamide, RRT = 1.73 min) [1, 24]: 0.46%
Purity (%) [1, 24]: 99.2%
Known Impurity* (%) (nicotinamide, RRT = 1.73 min) [1, 25]: 0.27%
Purity (%) [1, 25]: 99.4%
Known Impurity* (%) (nicotinamide, RRT = 1.73 min) [1, 26]: 1.38%
Purity (%) [1, 26]: 97.7%
Known Impurity* (%) (nicotinamide, RRT = 1.73 min) [1, 27]: 0.49%
Purity (%) [1, 27]: 98.8%
Known Impurity* (%) (nicotinamide, RRT = 1.73 min) [1, 28]: 3.46%
Purity (%) [1, 28]: 90.7%
Known Impurity* (%) (nicotinamide, RRT = 1.73 min) [1, 29]: 0.77%
Purity (%) [1, 29]: 97.4%
HPLC purity profile, Area % of main peak (RRT 1.00) [1, 30]: 99.52 Area %
HPLC purity profile, Area % of peak at RRT 1.76 / 1.74 (nicotinamide) [1, 30]: 0.12 Area %
nicotinamide impurity ([1]; time 0): 0.12%
Purity ([1]; time 0, listed as Crystalline Form 1): 99.5%
Observations [2, 5]: white solid
Observations [2, 6]: white solid
Observations [2, 7]: white solid
Observations [2, 9]: white solid
Observations [2, 10]: light brown
Observations [2, 11]: light brown
Observations [2, 12]: light brown
Observations [2, 13]: light brown
Observations [2, 14]: light brown
Observations [2, 15]: light brown
Observations [2, 16]: white solid
Observations [2, 17]: white solid
Observations [2, 18]: white solid,
Observations [2, 19]: white solid
Observations [2, 20]: white solid, wet
Observations [2, 21]: white solid,
Observations [2, 22]: white solid, wet
Observations [2, 23]: white solid
Observations [2, 24]: white solid
Observations [2, 25]: white solid
Observations [2, 26]: white solid
Observations [2, 27]: light brown
Observations [2, 28]: brown solid,
Observations [2, 29]: light brown
PLM [3, 31]: acicular
PLM [3, 32]: acicular
PLM [3, 33]: acicular
PLM [3, 34]: acicular
PLM [3, 35]: acicular
PLM [3, 36]: acicular
PLM [3, 37]: acicular
PLM [3, 38]: acicular
PLM [3, 39]: acicular
PLM [3, 40]: acicular
PLM [3, 41]: acicular
PLM [3, 42]: acicular
solid form and particle morphology after storage ([4]; all conditions tested): remained unchanged
XRPD [4, 31]: Unchanged
XRPD [4, 32]: Unchanged
XRPD [4, 33]: Unchanged
XRPD [4, 34]: Unchanged
XRPD [4, 35]: Unchanged
XRPD [4, 36]: Unchanged
XRPD [4, 37]: Unchanged
XRPD [4, 38]: Unchanged
XRPD [4, 39]: Unchanged
XRPD [4, 40]: Unchanged
XRPD [4, 41]: Unchanged
XRPD [4, 42]: Unchanged
Compound: NC(=O)c1ccc[n+]([C@@H]2O[C@H](COP(=O)([O-])O)[C@@H](O)[C@H]2O)c1 [RME-1304-63-01, β-nicotinamide mononucleotide]
